Measurements: patent US20150133456A1, “FLUOROERGOLINE DERIVATIVES AND USES THEREOF” (MAP PHARMACEUTICALS, INC., priority 2012, published 2015)

How the values were obtained:
human 5-HT2B receptor [1] = target: T1, human 5-HT2B receptor (Homo sapiens, UniProt P41595); assay: Aequorin assay, antagonist activity at 5-HT2B; assay type: cell-based; conditions: reference agonist at its EC80; read-out: IC50, 5-HT2B antagonism
T1 construct: host or cells: CHO-K1 coexpressing mitochondrial apoaequorin
Protocol: Percentage inhibition values were determined for 2-CF3 dihydroergotamine on the 5-HT2B receptor.

D2 receptor = target: T2, D2 receptor (Homo sapiens, UniProt P14416); assay: Agonist activity at the D2 receptor; assay type: cell-based; conditions: read-out: EC50, D2 receptor agonism
T2 construct: expressed in transfected cells
Protocol: The assay was performed analogously to the assay described in Example 4.

[2] = Metabolism in human liver microsomes; conditions: 1 μM, 0.2 mg protein/mL, 0 to 60 minutes
Protocol: Metabolism of dihydroergotamine (DHE) and 2-CF3 DHE was evaluated in human liver microsomes. DHE mesylate and 2-CF3 DHE mesylate (1 μM each) were incubated separately with human liver microsomes (0.2 mg protein/mL) in triplicate at 37° C. in 0.2 mL (final volume) incubation buffer (50 mM potassium phosphate buffer, pH 7.4, 3 mM MgCl2 and 1 mM EDTA, pH7.4) with or without cofactor, NADPH-generating system. The NADPH-generating system consisted of 1 mM NADP, pH 7.4, 5 mM glucose-6-phosphate, pH 7.4 and 1 unit/mL glucose-6-phosphate dehydrogenase. DHE was added to the incubation mixtures in water. 2-CF3-DHE was added to incubation mixtures in 50:50 (v:v) acetonitrile:water. A low level of acetonitrile in the incubation was maintained to avoid any solvent effects on enzyme activity (typically at 0.5% or lower). Reactions were initiated by the addition of the NADPH-generating system and were terminated at 0, 15, 30 and 60 minutes after initiation by the addition of […], of stop reagent (acetonitrile) containing two internal standards (4′-hydroxydiclofenac-d4 and 1′-hydroxymidazolam-d4, 200 and 50 ng/mL in the final stopped incubation, respectively). The samples were then centrifuged and the supernatant fractions were analyzed by LC/MS/MS to quantify the formation of 8′-OH-DHE (metabolite) in the DHE samples and DHE and 8′-OH-DHE in the 2-CF3-DHE samples.

human 5-HT2B receptor [3] = target: T1, human 5-HT2B receptor; assay: Aequorin assay, agonist activity at 5-HT2B; assay type: cell-based; conditions: reference agonist; read-out: EC50, 5-HT2B agonism
Protocol: Percentage activation values were determined for 2-CF3 dihydroergotamine at the 5-HT2B receptor.

T1 sequence (P41595 whole entry): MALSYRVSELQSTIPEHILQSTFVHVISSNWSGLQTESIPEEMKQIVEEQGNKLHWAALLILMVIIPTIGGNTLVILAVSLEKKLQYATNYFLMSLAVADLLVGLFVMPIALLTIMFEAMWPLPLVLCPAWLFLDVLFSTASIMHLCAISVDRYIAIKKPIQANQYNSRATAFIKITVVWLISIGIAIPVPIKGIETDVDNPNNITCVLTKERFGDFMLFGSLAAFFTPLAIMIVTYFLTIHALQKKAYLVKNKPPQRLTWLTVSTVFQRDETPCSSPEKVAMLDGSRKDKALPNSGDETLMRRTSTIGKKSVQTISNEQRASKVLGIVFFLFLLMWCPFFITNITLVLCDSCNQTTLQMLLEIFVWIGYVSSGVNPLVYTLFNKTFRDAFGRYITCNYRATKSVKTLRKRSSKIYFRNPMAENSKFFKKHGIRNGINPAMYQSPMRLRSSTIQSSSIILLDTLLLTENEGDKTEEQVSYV
T2 sequence (P14416 whole entry): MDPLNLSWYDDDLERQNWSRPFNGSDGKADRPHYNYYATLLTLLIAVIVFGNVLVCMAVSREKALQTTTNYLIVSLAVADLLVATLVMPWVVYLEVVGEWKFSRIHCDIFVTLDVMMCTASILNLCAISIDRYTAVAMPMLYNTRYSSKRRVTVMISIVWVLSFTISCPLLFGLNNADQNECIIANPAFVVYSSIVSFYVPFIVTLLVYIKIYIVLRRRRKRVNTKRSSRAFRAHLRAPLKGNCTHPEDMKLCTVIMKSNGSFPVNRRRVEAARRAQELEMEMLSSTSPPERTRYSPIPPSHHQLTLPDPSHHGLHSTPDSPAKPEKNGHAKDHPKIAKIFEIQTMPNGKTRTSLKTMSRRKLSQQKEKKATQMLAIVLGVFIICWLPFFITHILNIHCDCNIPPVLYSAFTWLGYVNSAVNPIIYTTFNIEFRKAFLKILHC

SMILES: Cc1cc(NC(=O)Nc2ccc3c(ccn3C)c2)sn1 [SB204741, reference compound]
- IC50 (human 5-HT2B receptor [1]): 28.8 nM

SMILES: CN1C[C@H](C(=O)N[C@]2(C)O[C@@]3(O)[C@@H]4CCCN4C(=O)[C@H](Cc4ccccc4)N3C2=O)C[C@@H]2c3cccc4[nH]cc(c34)C[C@H]21 [dihydroergotamine, reference compound]
- EC50 (D2 receptor): 8.35 nM
- metabolism by human liver microsomes in the presence of NADPH [2]: extensively metabolized

SMILES: CC(N)Cc1c[nH]c2ccc(O)cc12 (stereo not drawn) [α-methyl-5-HT, reference compound]
- EC50 (human 5-HT2B receptor [3]): 1.01 nM
